Experimental data taken from paper PMC7736581, “Activation of the IRE1 RNase through remodeling of the kinase front pocket by ATP-competitive ligands” (Nature Communications, 2020).

Assays:
Assay in all cases: biochemical
Design in all cases: Invitrogen kinase panel: Z'Lyte activity (ATP at Km) or LanthaScreen competitive ATP-site binding, percent inhibition
IKK_beta = target: T1, IKK_beta (Homo sapiens, UniProt O14920)
T1 construct: gene IKBKB
T1 sequence (O14920 1-756): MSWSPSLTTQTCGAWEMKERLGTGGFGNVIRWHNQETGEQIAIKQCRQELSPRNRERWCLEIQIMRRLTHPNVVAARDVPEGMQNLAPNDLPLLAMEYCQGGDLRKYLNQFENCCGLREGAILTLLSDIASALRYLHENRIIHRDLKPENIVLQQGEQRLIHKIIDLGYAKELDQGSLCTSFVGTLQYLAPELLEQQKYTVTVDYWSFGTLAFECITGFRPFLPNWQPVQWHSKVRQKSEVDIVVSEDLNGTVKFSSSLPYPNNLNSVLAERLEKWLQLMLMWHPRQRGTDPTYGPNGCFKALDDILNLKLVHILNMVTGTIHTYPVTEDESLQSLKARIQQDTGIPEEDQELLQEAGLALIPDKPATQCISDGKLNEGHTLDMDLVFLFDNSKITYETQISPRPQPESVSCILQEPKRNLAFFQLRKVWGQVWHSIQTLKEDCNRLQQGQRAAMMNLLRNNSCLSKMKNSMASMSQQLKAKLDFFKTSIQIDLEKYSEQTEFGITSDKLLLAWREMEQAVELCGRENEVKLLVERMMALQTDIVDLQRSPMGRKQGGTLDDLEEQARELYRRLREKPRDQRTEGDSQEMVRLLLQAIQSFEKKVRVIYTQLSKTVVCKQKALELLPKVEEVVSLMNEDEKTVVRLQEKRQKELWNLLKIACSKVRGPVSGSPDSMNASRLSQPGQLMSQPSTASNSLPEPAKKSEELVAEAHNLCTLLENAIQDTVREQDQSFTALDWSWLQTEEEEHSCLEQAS

IKK_epsilon = target: T2, IKK_epsilon (Homo sapiens, UniProt Q14164)
T2 construct: gene IKBKE
T2 sequence (Q14164 1-716): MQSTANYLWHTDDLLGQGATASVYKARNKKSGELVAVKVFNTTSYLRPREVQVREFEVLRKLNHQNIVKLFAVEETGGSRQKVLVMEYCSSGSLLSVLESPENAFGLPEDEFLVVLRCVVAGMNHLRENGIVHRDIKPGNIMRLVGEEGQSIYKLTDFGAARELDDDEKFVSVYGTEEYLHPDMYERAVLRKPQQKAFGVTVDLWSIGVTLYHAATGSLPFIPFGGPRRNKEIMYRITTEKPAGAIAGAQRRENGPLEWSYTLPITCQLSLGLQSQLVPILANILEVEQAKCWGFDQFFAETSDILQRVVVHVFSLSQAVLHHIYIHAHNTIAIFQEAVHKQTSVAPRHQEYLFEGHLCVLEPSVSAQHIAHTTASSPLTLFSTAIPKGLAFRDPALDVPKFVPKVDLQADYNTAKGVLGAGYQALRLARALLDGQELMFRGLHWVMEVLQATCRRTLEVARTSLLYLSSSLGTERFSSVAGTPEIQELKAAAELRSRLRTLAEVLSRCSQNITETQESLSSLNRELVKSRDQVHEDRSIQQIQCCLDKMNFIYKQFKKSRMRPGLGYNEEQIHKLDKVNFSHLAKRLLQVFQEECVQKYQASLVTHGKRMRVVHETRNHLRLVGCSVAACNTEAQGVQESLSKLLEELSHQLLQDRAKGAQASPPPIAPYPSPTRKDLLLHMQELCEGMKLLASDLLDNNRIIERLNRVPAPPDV

JNK2 = target: T3, JNK2 (Homo sapiens, UniProt P45984)
T3 construct: gene MAPK9

MEK1 = target: T4, MEK1 (Homo sapiens, UniProt Q02750)
T4 construct: gene MAP2K1

PhK_gamma1 = target: T5, PhK_gamma1 (Homo sapiens, UniProt Q16816)
T5 construct: gene PHKG1

RAF1(Y340D,Y341D) = RAF1(Y340D,Y341D) (Homo sapiens, UniProt P04049, Y340D/Y341D)
TBK1 = target: T6, TBK1 (Homo sapiens, UniProt Q9UHD2)
T6 sequence (Q9UHD2 1-729): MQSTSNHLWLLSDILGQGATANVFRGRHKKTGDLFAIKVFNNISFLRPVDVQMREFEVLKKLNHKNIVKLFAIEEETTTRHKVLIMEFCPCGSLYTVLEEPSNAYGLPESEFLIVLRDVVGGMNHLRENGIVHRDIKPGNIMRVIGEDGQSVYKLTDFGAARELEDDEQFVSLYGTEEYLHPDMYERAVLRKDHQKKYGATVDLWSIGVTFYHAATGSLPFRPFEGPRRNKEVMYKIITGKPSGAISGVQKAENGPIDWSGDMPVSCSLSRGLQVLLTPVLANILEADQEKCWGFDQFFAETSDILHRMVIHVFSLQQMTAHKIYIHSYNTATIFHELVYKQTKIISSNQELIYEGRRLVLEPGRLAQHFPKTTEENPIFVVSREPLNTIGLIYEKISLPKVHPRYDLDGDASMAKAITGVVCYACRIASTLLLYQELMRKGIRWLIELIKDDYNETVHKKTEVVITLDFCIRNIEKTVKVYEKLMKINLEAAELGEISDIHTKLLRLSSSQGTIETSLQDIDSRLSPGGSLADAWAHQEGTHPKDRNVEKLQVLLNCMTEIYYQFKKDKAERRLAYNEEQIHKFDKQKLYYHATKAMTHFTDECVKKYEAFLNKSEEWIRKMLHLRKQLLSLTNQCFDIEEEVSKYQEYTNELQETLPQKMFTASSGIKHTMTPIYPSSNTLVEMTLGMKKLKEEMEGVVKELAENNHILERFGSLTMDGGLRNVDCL

p70S6K = target: T7, p70S6K (Homo sapiens, UniProt P23443)
T7 construct: gene RPS6KB1
T7 sequence (P23443 whole entry): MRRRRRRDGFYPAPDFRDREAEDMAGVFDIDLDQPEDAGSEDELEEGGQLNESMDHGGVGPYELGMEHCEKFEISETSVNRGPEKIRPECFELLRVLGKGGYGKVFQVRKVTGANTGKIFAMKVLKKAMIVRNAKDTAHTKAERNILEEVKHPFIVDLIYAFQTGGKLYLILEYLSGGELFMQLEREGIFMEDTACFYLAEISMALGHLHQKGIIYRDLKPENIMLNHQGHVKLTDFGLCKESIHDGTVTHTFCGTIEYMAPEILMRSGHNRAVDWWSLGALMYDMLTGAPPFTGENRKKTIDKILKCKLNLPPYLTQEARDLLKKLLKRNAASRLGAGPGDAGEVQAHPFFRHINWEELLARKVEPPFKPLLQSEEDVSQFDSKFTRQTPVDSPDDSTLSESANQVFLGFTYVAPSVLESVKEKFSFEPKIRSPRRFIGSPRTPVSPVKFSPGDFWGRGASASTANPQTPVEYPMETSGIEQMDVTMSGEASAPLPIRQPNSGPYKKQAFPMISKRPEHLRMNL

T3 sequence (P45984 whole entry): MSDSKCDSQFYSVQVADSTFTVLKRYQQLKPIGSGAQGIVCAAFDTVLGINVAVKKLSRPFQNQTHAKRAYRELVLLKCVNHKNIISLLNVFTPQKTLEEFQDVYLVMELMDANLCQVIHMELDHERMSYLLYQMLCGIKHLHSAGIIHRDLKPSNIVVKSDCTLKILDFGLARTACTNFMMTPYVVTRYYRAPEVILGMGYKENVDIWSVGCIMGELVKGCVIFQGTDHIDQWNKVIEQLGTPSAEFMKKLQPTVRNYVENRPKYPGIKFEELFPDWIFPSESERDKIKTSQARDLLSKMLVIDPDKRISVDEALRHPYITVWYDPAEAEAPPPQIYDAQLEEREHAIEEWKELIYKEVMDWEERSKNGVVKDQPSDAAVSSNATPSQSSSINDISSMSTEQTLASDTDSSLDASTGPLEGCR
T5 sequence (Q16816 whole entry): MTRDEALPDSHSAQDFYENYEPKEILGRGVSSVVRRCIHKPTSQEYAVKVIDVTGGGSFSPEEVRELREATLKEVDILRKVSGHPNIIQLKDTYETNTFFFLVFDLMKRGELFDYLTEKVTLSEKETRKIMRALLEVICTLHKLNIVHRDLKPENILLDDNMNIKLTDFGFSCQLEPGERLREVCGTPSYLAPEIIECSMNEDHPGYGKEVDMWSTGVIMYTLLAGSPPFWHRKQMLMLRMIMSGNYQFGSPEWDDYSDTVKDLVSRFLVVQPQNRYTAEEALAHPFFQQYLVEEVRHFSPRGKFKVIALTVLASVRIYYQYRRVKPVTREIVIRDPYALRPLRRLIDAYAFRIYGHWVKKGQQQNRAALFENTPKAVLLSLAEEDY
T4 sequence (Q02750 whole entry): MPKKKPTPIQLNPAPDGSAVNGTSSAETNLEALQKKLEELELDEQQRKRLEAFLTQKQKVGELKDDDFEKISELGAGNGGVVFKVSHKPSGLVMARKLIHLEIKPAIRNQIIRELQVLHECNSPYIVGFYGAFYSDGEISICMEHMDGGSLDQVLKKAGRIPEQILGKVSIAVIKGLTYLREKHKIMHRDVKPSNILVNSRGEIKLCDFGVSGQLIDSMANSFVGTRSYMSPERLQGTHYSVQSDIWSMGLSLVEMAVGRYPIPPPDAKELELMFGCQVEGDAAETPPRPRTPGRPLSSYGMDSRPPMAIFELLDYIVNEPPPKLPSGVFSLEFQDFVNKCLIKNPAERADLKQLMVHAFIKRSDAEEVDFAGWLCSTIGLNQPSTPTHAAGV
RAF1(Y340D,Y341D), sequence (P04049 whole entry Y340D/Y341D): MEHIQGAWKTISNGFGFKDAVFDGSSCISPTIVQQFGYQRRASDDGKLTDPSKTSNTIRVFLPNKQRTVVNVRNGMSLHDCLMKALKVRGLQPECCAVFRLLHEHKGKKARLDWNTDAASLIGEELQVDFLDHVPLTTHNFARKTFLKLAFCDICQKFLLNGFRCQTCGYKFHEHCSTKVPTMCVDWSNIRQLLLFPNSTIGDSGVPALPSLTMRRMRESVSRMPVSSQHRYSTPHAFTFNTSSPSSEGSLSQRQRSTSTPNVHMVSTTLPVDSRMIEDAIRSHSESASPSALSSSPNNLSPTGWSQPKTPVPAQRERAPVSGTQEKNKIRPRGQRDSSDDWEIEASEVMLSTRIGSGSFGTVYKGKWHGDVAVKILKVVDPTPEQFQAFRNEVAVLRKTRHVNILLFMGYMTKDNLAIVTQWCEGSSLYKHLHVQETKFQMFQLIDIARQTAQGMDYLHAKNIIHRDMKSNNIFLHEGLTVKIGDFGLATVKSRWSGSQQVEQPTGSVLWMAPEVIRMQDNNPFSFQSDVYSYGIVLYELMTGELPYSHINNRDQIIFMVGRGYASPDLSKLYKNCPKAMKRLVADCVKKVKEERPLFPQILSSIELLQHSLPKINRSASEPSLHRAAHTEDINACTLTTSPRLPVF

Row | inhibition at 1 µM (IKK_beta) [%] | inhibition at 1 µM (IKK_epsilon) [%] | inhibition at 1 µM (JNK2) [%] | inhibition at 1 µM (MEK1) [%] | inhibition at 1 µM (PhK_gamma1) [%] | inhibition at 1 µM (RAF1(Y340D,Y341D)) [%] | inhibition at 1 µM (TBK1) [%] | inhibition at 1 µM (p70S6K) [%] | Compound
1 | 0 | 6.5 | 72 | 0.5 | 1 | 1 | 0 | -1 | CC#CC(=O)Nc1cccc2c(Oc3ncccc3-c3ccnc(N[C@H]4CCCNC4)n3)c(C)ccc12 [G-7658]
2 | 80.4 | 86.5 | 91.3 | 95.4 | 92.2 | 43.3 | 95.7 | 88.7 | O=c1cc(-c2n[nH]c3ncc(-c4c(F)cccc4F)cc23)nc(N2CCC(O)CC2)[nH]1 [G-9807]

Row | Compound | inhibition at 1 µM (IKK_beta) [%] | inhibition at 1 µM (IKK_epsilon) [%] | inhibition at 1 µM (JNK2) [%] | inhibition at 1 µM (MEK1) [%] | inhibition at 1 µM (PhK_gamma1) [%] | inhibition at 1 µM (RAF1(Y340D,Y341D)) [%] | inhibition at 1 µM (TBK1) [%] | inhibition at 1 µM (p70S6K) [%]
3 | CCOC(=O)Nc1cccc2c(Oc3ncccc3-c3ccnc(N[C@H]4CCCNC4)n3)c(C)ccc12 [G-1749] | -2 | 4 | 79 | 2 | 2 | 24.5 | -0.5 | 2.5
